In publication PMC13242511, “Disrupting Notch signalling by a small molecule inhibiting dihydroorotate dehydrogenase activity” (Scientific Reports, 2026):

What was measured:
Type in all cases: cell-based
NOTCH1 = assay: Cycloheximide chase experiment (half-life of cleaved NOTCH1); parameters: key to NOTCH1 (TMICD), DMSO as reference: western blot band intensity normalised to beta-Actin, relative to DMSO; details: for NOTCH1/ (TMICD) band intensity: 5 µM
Procedure: HEK293T Notch reporter cells (clone #A1-11) were grown to 80% confluence, detached and counted. 50,000 cells were then seeded in each well of a 24-well tissue culture plate (Sarstedt, cat # 83.3924), cultivated to approximately 85% confluence and treated with 5 µM of the respective compound and 50 µg/ml Cycloheximide (CHX) solution (Sigma-Aldrich, cat #C4859-1ML). Each well was then incubated with 500 µl of compound and CHX solution and compound and CHX solution were added after the indicated intervals to another well for a total time of eight hours. Next, medium was aspirated off and cells were lysed in RIPA buffer (Thermofisher, cat #89900) containing Protease and Phosphatase inhibitors (Thermofisher, cat #78442) for 30 min on ice. Lysates were thoroughly vortexed, centrifugated for 10 min at > 13,000×g and supernatant was transferred to a fresh cup and stored at -80 °C.
Cells were washed in ice-cold PBS and incubated for 30 min on ice with RIPA cell lysis buffer (Thermofisher, cat #89900) containing protease and phosphatase inhibitors (Thermofisher, cat #78442), scraped off and homogenized using a 25G syringe, and subsequently centrifugated for 10 min at > 13,000xg. […] After electrophoresis, gels were placed directly onto a TransBlot Turbo PVDF or nitrocellulose membrane (Bio-rad, cat #1704157 and cat #1704159) and transferred using the “HIGH MW” protocol (Bio-Rad). Subsequently, membranes were blocked for 1 h at room temperature using Clear Milk Blocking Buffer (ThermoFisher, cat #37587) supplemented with 0.1% Tween20 (Sigma-Aldrich, cat #P1379). Detection of antibody binding was performed by using Clarity Western ECL-Substrate (Bio-rad, cat #1705060S). Beta-Actin protein signals were used as a loading control. Western blot membranes were in some experiments stripped after development (indicated in the figure in each respective case) by washing the membranes twice for 10 min in PBS, followed by incubation in membranes in western blot stripping buffer (ThermoFisher, cat #21059) for 30 min at room temperature and gentle agitation. Stripped membranes were washed twice with PBS and incubated for 30 min in blocking buffer before incubation with primary antibody. A list of all antibodies used in this study is provided in Supplemental Table 6. Uncropped western blot images are provided in […]. Protein expression levels of western blot bands were quantified using Fiji (V.2.16) with beta-Actin signals for normalisation (Supplemental Table 8). Uncropped western blot images are provided in Supplemental Fig. 10.

BT-20 cells = assay: Growth inhibition, metabolic activity (CellTiter-Glo); details: Homo sapiens; BT-20, six days; read-out: approximated IC50, metabolic activity
Text: (§1) We next investigated whether compounds A-E affected growth and viability of cell lines from T-cell acute lymphoblastic leukaemia (T-ALL) and breast cancer, two tumour types in which elevated Notch signalling has been implicated in tumorigenesis. […] When testing analogues of compounds B and C, five of the seven B analogues and one of the two C analogues produced dose–response curves and IC50s, which however were higher compared to the original hits (Supplemental Fig. 5A; IC50s are presented in Supplemental Table 6).
(§2) Compounds were spotted on white 384-well tissue culture plates (Greiner, cat #781080) using an Echo 525 Acoustic liquid handler (Labcyte). Cells were grown to 80% confluence, detached if required, counted and 20 µl containing 2000–4000 cells per well was then seeded in each well and cultivated for three (4,000 cells seeded) and six days (2,000 cells seeded). […] Luciferase activity (reading out metabolic activity) was determined using the CellTiter-Glo 2.0 kit (CTG, Promega, cat #G9242) following the manufacturer’s instructions and luminescence was measured on a SpectraMaxi3 or Varioscan plate reader (Molecular Devices, Thermofisher).

MDA-MB-436 cells = assay: as above; details: Homo sapiens; MDA-MB-436, six days; read-out: approximated IC50, metabolic activity
Text: as §1, §2

Notch signalling = assay: DHODH inhibitor and uridine rescue experiment (Notch reporter assay); details: 1 and 10 µM, 24 h
Procedure: HEK293T Notch reporter cells (#A1-11) were grown to 80% confluency, detached and mixed with the indicated compounds and doses with or without uridine (Sigma-Aldrich, cat #U3003). 10,000 cells/well were then seeded into 96-well cell culture plates (ThermoFisher, cat #136102) and incubated for 24 h. DMSO treatment with or without uridine served as control for each treatment. Cells were then subjected to Notch reporter assays, and luciferase signals were recorded on a Varioscan Lux microplate reader (ThermoFisher). Reporter signals from each treatment were normalised to the respective DMSO control, as described above and three independent assays were recorded with at least two technical replicates per treatment.

HES-1 in JURKAT cells = assay: Western blot analysis of HES1 protein; details: 2 µM, 48 h, Fig. 8C
Procedure: (§3) Cells were washed in ice-cold PBS and incubated for 30 min on ice with RIPA cell lysis buffer (Thermofisher, cat #89900) containing protease and phosphatase inhibitors (Thermofisher, cat #78442), scraped off and homogenized using a 25G syringe, and subsequently centrifugated for 10 min at > 13,000xg. […] After electrophoresis, gels were placed directly onto a TransBlot Turbo PVDF or nitrocellulose membrane (Bio-rad, cat #1704157 and cat #1704159) and transferred using the “HIGH MW” protocol (Bio-Rad). Subsequently, membranes were blocked for 1 h at room temperature using Clear Milk Blocking Buffer (ThermoFisher, cat #37587) supplemented with 0.1% Tween20 (Sigma-Aldrich, cat #P1379). Detection of antibody binding was performed by using Clarity Western ECL-Substrate (Bio-rad, cat #1705060S). Beta-Actin protein signals were used as a loading control. Western blot membranes were in some experiments stripped after development (indicated in the figure in each respective case) by washing the membranes twice for 10 min in PBS, followed by incubation in membranes in western blot stripping buffer (ThermoFisher, cat #21059) for 30 min at room temperature and gentle agitation. […] Protein expression levels of western blot bands were quantified using Fiji (V.2.16) with beta-Actin signals for normalisation (Supplemental Table 8). […]

HES1 in MDA-MB-231 cells = assay: Western blot analysis of HES1 protein; details: MDA-MB-231, 2 µM, 48 h; Fig. 8C
Procedure: as §3

[1] = timepoint 0 (hours after cycloheximide)
[2] = timepoint 1 (hours after cycloheximide)
[3] = timepoint 2 (hours after cycloheximide)
[4] = timepoint 4 (hours after cycloheximide)
[5] = timepoint 6 (hours after cycloheximide)
[6] = timepoint 8 (hours after cycloheximide)

Row | SMILES | NOTCH1/ (TMICD) band intensity (NOTCH1; [1]) | NOTCH1 (TMICD) normalized to beta-Actin (used for plots) (NOTCH1; timepoint 0, 5 µM) | NOTCH1 (TMICD), DMSO as reference (NOTCH1; timepoint 0, 5 µM) | NOTCH1/ (TMICD) band intensity (NOTCH1; [2]) | NOTCH1 (TMICD) normalized to beta-Actin (used for plots) (NOTCH1; timepoint 1, 5 µM) | NOTCH1 (TMICD), DMSO as reference (NOTCH1; timepoint 1, 5 µM) | NOTCH1/ (TMICD) band intensity (NOTCH1; [3]) | NOTCH1 (TMICD) normalized to beta-Actin (used for plots) (NOTCH1; timepoint 2, 5 µM) | NOTCH1 (TMICD), DMSO as reference (NOTCH1; timepoint 2, 5 µM) | NOTCH1/ (TMICD) band intensity (NOTCH1; [4]) | NOTCH1 (TMICD) normalized to beta-Actin (used for plots) (NOTCH1; timepoint 4, 5 µM) | NOTCH1 (TMICD), DMSO as reference (NOTCH1; timepoint 4, 5 µM) | NOTCH1/ (TMICD) band intensity (NOTCH1; [5]) | NOTCH1 (TMICD) normalized to beta-Actin (used for plots) (NOTCH1; timepoint 6, 5 µM) | NOTCH1 (TMICD), DMSO as reference (NOTCH1; timepoint 6, 5 µM) | NOTCH1/ (TMICD) band intensity (NOTCH1; [6]) | NOTCH1 (TMICD) normalized to beta-Actin (used for plots) (NOTCH1; timepoint 8, 5 µM) | NOTCH1 (TMICD), DMSO as reference (NOTCH1; timepoint 8, 5 µM) | further results
1 | CC(C)(C(=O)NCC(F)(F)C(F)(F)F)C(=O)N[C@@H]1C(=O)Nc2ccccc2-c2ccccc21 [RO4929097, reference compound] | 20583.6 | 1.3 | 1.0 | 14235.7 | 0.8 | 0.6 | 11993.7 | 0.6 | 0.5 | 14001.0 | 0.8 | 0.6 | 9107.8 | 0.8 | 0.6 | 9737.6 | 0.7 | 0.53 | protein stability of NOTCH1 (in words) (NOTCH1; cycloheximide chase, Supplemental Fig. 8B): enhanced protein stability
2 | Cc1ccc2[nH]c3c(c2c1)CCOC31CCN(Cc2ccccc2-c2ccccc2)CC1 [compound B] | – | – | – | – | – | – | – | – | – | – | – | – | – | – | – | – | – | – | IC50 (BT-20 cells): 3200 nM; IC50 (MDA-MB-436 cells): 2000 nM
3 | COc1cccc(CNc2ccc(N3CCCCC3)cc2)c1OCc1cccs1 [compound C] | 11149.0 | 0.8 | 1.0 | 9563.6 | 0.7 | 0.9 | 5022.2 | 0.4 | 0.5 | 5169.6 | 0.347 | 0.442 | 6218.3 | 0.362 | 0.46 | 4511.9 | 0.277 | 0.352 | effect on Notch reporter activity after addition of uridine (Notch signalling; plus 100 µM uridine): reversed; Notch reporter assay activity (Notch signalling; without uridine): reduced the reporter assay activity; level of HES-1 protein (HES-1 in JURKAT cells): reduced; HES1 protein levels (HES1 in MDA-MB-231 cells): reduction in HES1 levels
